Activity calls are given as the source filed them. No cut-off for these calls is given here.
Legend:
Streptococcus pneumoniae [1] = test: Antibacterial activity against high dose 1.5 x 10^7 CFU Streptococcus pneumoniae serotype 2 infected in therapeutic C57BL/6 mouse model assessed as bacterial count in blood at 6 mg/kg, ip measured after 4 days post infection; type: functional; settings: route intraperitoneal
Streptococcus pneumoniae [2] = test: Antibacterial activity against low dose 5 x 10^6 CFU Streptococcus pneumoniae serotype 2 infected in semitherapeutic C57BL/6 mouse model assessed as reduction of bacteremia at 6 mg/kg, ip measured after 3 dayss post infection; type: functional, organism-based; design: dose 6 mg/kg
Streptococcus pneumoniae [3] = test: Antibacterial activity against 5 x 10^6 CFU Streptococcus pneumoniae serotype 2 infected in semitherapeutic C57BL/6 mouse model assessed as reduction of bacteremia at 6 mg/kg, ip measured after 2 days post infection; type: functional, organism-based; design: dose 6 mg/kg
Streptococcus pneumoniae [4] = test: Antibacterial activity against high dose 1.5 x 10^7 CFU Streptococcus pneumoniae serotype 19 infected in semitherapeutic C57BL/6 mouse model assessed as bacterial count in lung at 6 mg/kg, ip measured after 5 day post infection; type: functional; settings: route intraperitoneal
Streptococcus pneumoniae [5] = test: Antibacterial activity against 5 x 10^6 CFU Streptococcus pneumoniae serotype 2 infected in semitherapeutic C57BL/6 mouse model assessed as bacterial count in lung at 6 mg/kg, ip measured after 3 days post infection; type: functional; settings: route intraperitoneal
Streptococcus pneumoniae [6] = test: Antibacterial activity against 5 x 10^6 CFU Streptococcus pneumoniae serotype 2 infected in semitherapeutic C57BL/6 mouse model assessed as bacterial count in blood at 6 mg/kg, ip measured after 1 day post infection; type: functional; settings: route intraperitoneal
Streptococcus pneumoniae [7] = test: Antibacterial activity against high dose 1.5 x 10^7 CFU Streptococcus pneumoniae serotype 2 infected in semitherapeutic C57BL/6 mouse model assessed as bacterial count in lung at 6 mg/kg, ip measured after 2 days post infection; type: functional; settings: route intraperitoneal
Streptococcus pneumoniae [8] = test: Antibacterial activity against high dose 1.5 x 10^7 CFU Streptococcus pneumoniae serotype 2 infected in semitherapeutic C57BL/6 mouse model assessed as bacterial count in lung at 6 mg/kg, ip measured after 5 day post infection; type: functional; settings: route intraperitoneal
Streptococcus pneumoniae [9] = test: Antibacterial activity against high dose 1.5 x 10^7 CFU Streptococcus pneumoniae serotype 2 infected in semitherapeutic C57BL/6 mouse model assessed as reduction of bacteremia at 6 mg/kg, ip measured after 5 day post infection; type: functional, organism-based; design: dose 6 mg/kg
Streptococcus pneumoniae [10] = test: Antibacterial activity against 5 x 10^6 CFU Streptococcus pneumoniae serotype 2 infected in semitherapeutic C57BL/6 mouse model assessed as bacterial count in spleen at 6 mg/kg, ip measured after 1 day post infection; type: functional; settings: route intraperitoneal
Streptococcus pneumoniae [11] = test: Antibacterial activity against high dose 1.5 x 10^7 CFU Streptococcus pneumoniae serotype 19 infected in semitherapeutic C57BL/6 mouse model assessed as bacteremic mice at 6 mg/kg, ip measured after 4 days post infection; type: functional, organism-based; design: dose 6 mg/kg
Streptococcus pneumoniae [12] = test: Antibacterial activity against high dose 1.5 x 10^7 CFU Streptococcus pneumoniae serotype 19 infected in semitherapeutic C57BL/6 mouse model assessed as bacterial count in lung at 6 mg/kg, ip measured after 3 days post infection; type: functional; settings: route intraperitoneal
Streptococcus pneumoniae [13] = test: Antibacterial activity against high dose 1.5 x 10^7 CFU Streptococcus pneumoniae serotype 2 infected in semitherapeutic C57BL/6 mouse model assessed as bacterial count in lung at 6 mg/kg, ip measured after 10 day post infection; type: functional; settings: route intraperitoneal
Streptococcus pneumoniae [14] = test: Antibacterial activity against high dose 1.5 x 10^7 CFU Streptococcus pneumoniae serotype 2 infected in semitherapeutic C57BL/6 mouse model assessed as bacterial count in blood at 6 mg/kg, ip measured after 1 day post infection; type: functional; settings: route intraperitoneal
Streptococcus pneumoniae [15] = test: Antibacterial activity against 5 x 10^6 CFU Streptococcus pneumoniae serotype 2 infected in semitherapeutic C57BL/6 mouse model assessed as bacterial count in lung at 6 mg/kg, ip measured after 2 days post infection; type: functional; settings: route intraperitoneal
Streptococcus pneumoniae [16] = test: Antibacterial activity against high dose 1.5 x 10^7 CFU Streptococcus pneumoniae serotype 19 infected in semitherapeutic C57BL/6 mouse model assessed as bacterial count in lung at 6 mg/kg, ip measured after 1 day post infection; type: functional; settings: route intraperitoneal
Streptococcus pneumoniae [17] = test: Antibacterial activity against high dose 1.5 x 10^7 CFU Streptococcus pneumoniae serotype 19 infected in semitherapeutic C57BL/6 mouse model assessed as reduction of bacteremia at 6 mg/kg, ip measured after 3 days post infection; type: functional, organism-based; design: dose 6 mg/kg
Streptococcus pneumoniae [18] = test: Antibacterial activity against low dose 5 x 10^6 CFU Streptococcus pneumoniae serotype 19 infected in semitherapeutic C57BL/6 mouse model assessed as bacterial count in lung at 6 mg/kg, ip measured after 5 day post infection; type: functional; settings: route intraperitoneal
Streptococcus pneumoniae [19] = test: Antibacterial activity against high dose 1.5 x 10^7 CFU Streptococcus pneumoniae serotype 2 infected in therapeutic C57BL/6 mouse model assessed as bacterial count in lung at 6 mg/kg, ip measured after 5 day post infection; type: functional; settings: route intraperitoneal
Streptococcus pneumoniae [20] = test: Antibacterial activity against high dose 1.5 x 10^7 CFU Streptococcus pneumoniae serotype 19 infected in semitherapeutic C57BL/6 mouse model assessed as reduction of bacteremia at 6 mg/kg, ip measured after 2 days post infection; type: functional, organism-based; design: dose 6 mg/kg
Streptococcus pneumoniae [21] = test: Antibacterial activity against low dose 5 x 10^6 CFU Streptococcus pneumoniae serotype 19 infected in semitherapeutic C57BL/6 mouse model assessed as bacteremic mouse at 6 mg/kg, ip measured after 3 days post infection; type: functional, organism-based; design: dose 6 mg/kg
Streptococcus pneumoniae [22] = test: Antibacterial activity against low dose 5 x 10^6 CFU Streptococcus pneumoniae serotype 2 infected in semitherapeutic C57BL/6 mouse model assessed as reduction of bacteremia at 6 mg/kg, ip measured after 10 day post infection; type: functional, organism-based; design: dose 6 mg/kg
Streptococcus pneumoniae [23] = test: Antibacterial activity against low dose 5 x 10^6 CFU Streptococcus pneumoniae serotype 2 infected in semitherapeutic C57BL/6 mouse model assessed as bacterial count in lung at 6 mg/kg, ip measured after 5 day post infection; type: functional; settings: route intraperitoneal
Streptococcus pneumoniae [24] = test: Antibacterial activity against 1.5 x 10^7 CFU Streptococcus pneumoniae serotype 2 infected in therapeutic C57BL/6 mouse model assessed as effect on lung permeability at 6 mg/kg, ip measured on day 3 post infection; type: functional, organism-based; design: dose 6 mg/kg
Streptococcus pneumoniae [25] = test: Antibacterial activity against low dose 5 x 10^6 CFU Streptococcus pneumoniae serotype 19 infected in semitherapeutic C57BL/6 mouse model assessed as bacteremic mouse at 6 mg/kg, ip measured after 1 day post infection; type: functional, organism-based; design: dose 6 mg/kg
Streptococcus pneumoniae [26] = test: Antibacterial activity against 1.5 x 10^7 CFU Streptococcus pneumoniae serotype 2 infected in therapeutic C57BL/6 mouse model assessed as effect on leukocytes infiltration in BALF at 6 mg/kg, ip measured on day 3 post infection; type: functional, organism-based; design: dose 6 mg/kg
Streptococcus pneumoniae [27] = test: Antibacterial activity against high dose 1.5 x 10^7 CFU Streptococcus pneumoniae serotype 19 infected in semitherapeutic C57BL/6 mouse model assessed as bacteremic mice at 6 mg/kg, ip measured after 5 day post infection; type: functional, organism-based; design: dose 6 mg/kg
Streptococcus pneumoniae [28] = test: Antibacterial activity against high dose 1.5 x 10^7 CFU Streptococcus pneumoniae serotype 2 infected in therapeutic C57BL/6 mouse model assessed as bacterial count in blood at 6 mg/kg, ip measured after 3 days post infection; type: functional; settings: route intraperitoneal
Streptococcus pneumoniae [29] = test: Antibacterial activity against high dose 1.5 x 10^7 CFU Streptococcus pneumoniae serotype 2 infected in semitherapeutic C57BL/6 mouse model assessed as reduction of bacteremiar at 6 mg/kg, ip measured after 3 days post infection; type: functional, organism-based; design: dose 6 mg/kg
Streptococcus pneumoniae [30] = test: Antibacterial activity against high dose 1.5 x 10^7 CFU Streptococcus pneumoniae serotype 2 infected in semitherapeutic C57BL/6 mouse model assessed as bacterial count in lung at 6 mg/kg, ip measured after 3 days post infection; type: functional; settings: route intraperitoneal

With CCCCCCCCCC(=O)N[C@@H](Cc1c[nH]c2ccccc12)C(=O)N[C@H](CC(N)=O)C(=O)N[C@@H](CC(=O)O)C(=O)N[C@@H]1C(=O)NCC(=O)N[C@@H](CCCN)C(=O)N[C@@H](CC(=O)O)C(=O)N[C@H](C)C(=O)N[C@@H](CC(=O)O)C(=O)NCC(=O)N[C@H](CO)C(=O)N[C@@H]([C@H](C)CC(=O)O)C(=O)N[C@@H](CC(=O)c2ccccc2N)C(=O)O[C@@H]1C the log10cfu (Streptococcus pneumoniae [1]) was 2.6, the Activity (Streptococcus pneumoniae [2]) was “Active” and the Activity (Streptococcus pneumoniae [3]) was “Active”. It also gave a log10cfu (Streptococcus pneumoniae [4]) of 4.7, a log10cfu (Streptococcus pneumoniae [5]) of 3.8 and a log10cfu (Streptococcus pneumoniae [6]) of 2. For the same compound, the log10cfu (Streptococcus pneumoniae [7]) was 4.2, the log10cfu (Streptococcus pneumoniae [8]) was 2.2 and the Activity (Streptococcus pneumoniae [9]) was “Active”. The log10cfu (Streptococcus pneumoniae [10]) was 2.2, the Activity (Streptococcus pneumoniae [11]) was “Active” and the log10cfu (Streptococcus pneumoniae [12]) was 7.1. The log10cfu (Streptococcus pneumoniae [13]) was 2.9, the log10cfu (Streptococcus pneumoniae [14]) was 2.6 and the log10cfu (Streptococcus pneumoniae [15]) was 3.6. For the same compound, the log10cfu (Streptococcus pneumoniae [16]) was 6.4, the Activity (Streptococcus pneumoniae [17]) was “Active” and the log10cfu (Streptococcus pneumoniae [18]) was 3.5. For the same compound, the log10cfu (Streptococcus pneumoniae [19]) was 2.8, the Activity (Streptococcus pneumoniae [20]) was “Active” and the Activity (Streptococcus pneumoniae [21]) was “Active”. For the same compound, the Activity (Streptococcus pneumoniae [22]) was “Active”, the log10cfu (Streptococcus pneumoniae [23]) was 3.2 and the Activity (Streptococcus pneumoniae [24]) was “Active”. The Activity (Streptococcus pneumoniae [25]) was “Active”, the Activity (Streptococcus pneumoniae [26]) was “Active” and the Activity (Streptococcus pneumoniae [27]) was “Active”. For the same compound, the log10cfu (Streptococcus pneumoniae [28]) was 2.3, the Activity (Streptococcus pneumoniae [29]) was “Active” and the log10cfu (Streptococcus pneumoniae [30]) was 3.5.
